Reference: US20240417372A1, “ESTERS OF A RETINOID AND BAKUCHIOL AND PREPARATIONS THEREOF” (Conagen Inc., priority 2021, published 2024)

Experiments:
Assay type in all cases: cell-based
Conditions in all cases: for Fold Activation: RLU vs DMSO, 23 hours
[1] = tested on: RAR gamma; assay: RAR gamma Gal4-hybrid luciferase reporter cell agonist assay
Experimental: (§1) Reporter Cells (Indigo Biosciences, catalog #IB02201, IB02101, IB00821) used in the assays express a receptor hybrid in which the native N-terminal DNA binding domain (DBD) has been replaced with that of the yeast Gal4 DBD. The reporter gene, firefly luciferase, is functionally linked to the Gal4 upstream activation sequence (UAS). Receptor assays were performed as described in Steps 1 to 3 below.
(§2) Step 1: A suspension of Reporter Cells was prepared in Cell Recovery Medium (CRM: containing charcoal-stripped FBS) and 100 μl of the Reporter Cell suspension was dispensed into wells of a white 96-well assay plate.
(§3) Step 2: Test and reference compound master stocks were prepared as solutions at 1,000× concentration’ in DMSO relative to the final treatment concentration. This intermediate stock was subsequently diluted directly into INDIGO Biosciences's Compound Screening Medium (CSM; containing charcoal-stripped FBS) to generate ‘2×-concentration’ treatment media. 100 μL of each prepared treatment medium was dispensed into duplicate assay wells pre-dispensed with a 100 μL suspension of Reporter Cells, thereby achieving the desired final treatment concentrations. The concentration of residual DMSO in all assay wells was 0.1% for the test and reference compounds. Assay plates were incubated at 37° C., 5% CO2 and ˜70% humidity for 23 hours. DMSO control was used to determine background activity. Retinoic acid was used with its EC100 concentration to show 100% activity of each receptor. Retinol was used as positive control.
(§4) Step 3: Following the incubation period, treatment media were discarded and 100 μL/well of Luciferase Detection Reagent was added per well to determine receptor activity in terms of relative luminescence units (RLUs). Data processing: fold activation: [Ave RLU Test Cmpd/Ave RLU DMSO].

[2] = target: T1, RAR alpha (Homo sapiens, UniProt P10276); assay: RAR alpha Gal4-hybrid luciferase reporter cell agonist assay
T1 sequence (P10276 183-417 limits assumed): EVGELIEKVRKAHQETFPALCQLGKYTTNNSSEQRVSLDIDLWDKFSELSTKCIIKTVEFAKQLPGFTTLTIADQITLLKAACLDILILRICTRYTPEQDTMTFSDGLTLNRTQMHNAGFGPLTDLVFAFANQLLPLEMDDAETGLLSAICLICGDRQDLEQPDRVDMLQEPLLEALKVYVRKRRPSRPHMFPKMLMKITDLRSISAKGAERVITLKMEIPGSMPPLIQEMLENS
Experimental: as §1, §2, §3, §4

[3] = target: T2, RAR beta (Homo sapiens, UniProt P10826); assay: RAR beta Gal4-hybrid luciferase reporter cell agonist assay
T2 sequence (P10826 183-417 limits assumed): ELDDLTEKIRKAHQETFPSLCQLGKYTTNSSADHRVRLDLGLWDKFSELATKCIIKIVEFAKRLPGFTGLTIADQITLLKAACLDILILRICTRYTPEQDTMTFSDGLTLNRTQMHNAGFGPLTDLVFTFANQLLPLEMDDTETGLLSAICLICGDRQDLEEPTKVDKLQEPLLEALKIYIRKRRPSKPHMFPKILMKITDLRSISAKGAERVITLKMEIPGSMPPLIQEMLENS
Experimental: as §1, §2, §3, §4

CC1=C(/C=C/C(C)=C/C=C/C(C)=C/C(=O)O)C(C)(C)CCC1 [Retinoic acid, reference compound]
Fold Activation ([1]; RAR gamma, 0.1 μM (EC100 concentration of retinoic acid)): 706

C=C[C@](C)(/C=C/c1ccc(OC(=O)/C=C(C)/C=C/C=C(C)/C=C/C2=C(C)CCCC2(C)C)cc1)CCC=C(C)C [Bakuchoyl retinoate of Formula I]
Fold Activation ([2]; RAR alpha, 0.1 μM): 26.0 | Fold Activation ([2]; RAR alpha, 1 μM): 979 | activity compared with retinol (in words) ([2]; RAR alpha, at 0.1 μm and 0.01 μm): more active than retinol | agonist activity towards RAR alpha (in words) ([2]; summary of Table 1): exhibited agonist activity | Fold Activation ([3]; RAR beta, 0.1 μM): 12.6 | Fold Activation ([3]; RAR beta, 1 μM): 169 | activity compared with retinol (in words) ([3]; RAR beta, at 0.1 μm and 0.01 μm): more active than retinol | agonist activity towards RAR beta (in words) ([3]; summary of Table 1): exhibited agonist activity | Fold Activation ([1]; RAR gamma, 0.1 μM): 41.0 | Fold Activation ([1]; RAR gamma, 1 μM): 541 | activity compared with retinol (in words) ([1]; RAR gamma, at 0.1 μm and 0.01 μm): more active than retinol | agonist activity towards RAR gamma (in words) ([1]; summary of Table 1): exhibited agonist activity

CC1=C(/C=C/C(C)=C/C=C/C(C)=C/CO)C(C)(C)CCC1 [Retinol, reference compound]
Fold Activation ([2]; RAR alpha, 0.1 μM): 6.35 | Fold Activation ([2]; RAR alpha, 1 μM): 518 | Fold Activation ([3]; RAR beta, 0.1 μM): 4.91 | Fold Activation ([3]; RAR beta, 1 μM): 127 | Fold Activation ([1]; RAR gamma, 0.1 μM): 18.5 | Fold Activation ([1]; RAR gamma, 1 μM): 368
